# Results reported in patent US20260060907A1, “GADUSOL-CONTAINING SUNSCREEN FORMULATIONS” (ARCAEA, LLC, priority 2022, published 2026).
# Key:
# [1] = system: erythrocytes; experiment: Cell-based antioxidant protection in erythrocytes (CAP-e) assay; details: for lysis of the cells: highest dose (3.3 mg/ml), erythrocytes
# Description: The cell-based antioxidant protection in erythrocytes (CAP-e) assay (Honzel et. al., 2008, and Jensen GS. Cell-based antioxidant protection assay, also disclosed in U.S. Pat. No. 8,465,988, incorporated herein in its entirety by this reference) was used. This testing was selected to measure antioxidant power but, in addition, the method ensures that the antioxidant agent crosses the cell's lipid boundary layer so that only intracytoplasmic activity is measured. […] The tested concentrations for both gadusol and the Porphyra-334 ranged from 0.001 to 3.33 mg/mL.
# [2] = In vivo SPF determination (FDA 21 CFR 201.327 SPF test procedure); parameters: species or system human
# Description: An in vivo SPF determination was conducted according to FDA, 21 CFR Sec. 201.327, subpart (i), SPF Test Procedure, Sunscreen Drug Products for Over-the-Counter Human Use, Final Monograph, Federal Register, Vol. 76, No. 117, Jun. 17, 2011, the disclosure of which is incorporated herein in its entirety by this reference. Each in vivo test for a sunscreen formulation was tested on three different subjects.
# For subject enrollment, the test subjects reported to the testing laboratory and received a complete explanation of the study procedures. Those who participated signed a written, witnessed consent form, and a permission to release personal health information form and provided a brief medical history. The technician did a final examination of the subject's back, between the belt-line and shoulder blades and determined their suitability to participate in this study.
# A Xenon Arc Solar Simulator lamp, which has a continuous light spectrum in the UVA and UVB range (290-400 nanometers) was utilized for the in vivo light source. The spectral output of the solar simulator was filtered so that it meets the spectral output requirements for testing Sunscreen Drug Products for over-the-counter human use; FDA Final Monograph, 21 CFR Part 201.327 (i)(1), UV Source, Federal Register, Vol. 76, No. 117, Jun. 17, 2011 and the International Sun Protection Factor (SPF) Test Method, May 2006, the disclosure of which is incorporated herein in its entirety by this reference.
# For a baseline value, a series of 5 UV radiation doses expressed as Joules/square meter, increasing in 25% increments, was administered to two unprotected separate locations on each test subject's back, just below the shoulder blades and above the belt-line, to determine the initial unprotected MED (MEDu).
# The MEDu was administered in the following 5 dose series, with X representing the amount of UV energy projected to produce the test subject's MEDu (Table C).
# On Day 2, subjects returned to the testing laboratory within 16 to 24 hours following completion of the MEDu doses for evaluation of their responses, and to determine each subject's unprotected MED (MEDu). A subject's Minimal Erythemal Dose (MED) was the quantity of erythema effective energy, or dose corresponding to the first site that produced the first unambiguous erythema reaction with well-defined borders. The following grading scale used in this study for determining a MED (+) response. • − No perceptible erythemal response • ? […]
# MEDp UV Dose was administered by the technician via a series of 5 UV radiation doses expressed as Joules/square meter, as specified in FDA, 21 CFR, Sec. […]
# [3] = system: E. coli; experiment: Toxicity towards E. coli; format: cell-based
# Source text: (§1) The amount of gadusol incorporated to provide the intended in vivo sunscreen SPF boosting activity can be from about 0.25, 0.50, 0.75, 1.0, 1.25, 1.50, 1.75, or 2.0% (w/w) in the sunscreen formulation that includes a physical/inorganic sunscreen active material, where any value can form an upper or lower endpoint, as appropriate. Still further, the amount of gadusol in the sunscreen formulation can be from about 0.25 to 2.0% (w/w), or from about 0.5 to 1.0% (w/w). In these, and possibly other amounts, gadusol suitably can provide a safe and effective sunscreen boosting effect when combined with sunscreen active ingredients. […] To summarize these safety tests, the cellular toxicity of gadusol was compared to that of a common sunscreen ingredient, oxybenzone. Vero E6 fibroblasts were used to evaluate toxicity. […] Toxicity towards E. coli was also not found.
# [4] = Stability of aqueous gadusol under acidic conditions (spectrophotometric at 296 nm); format: physicochemical; details: after 90 days at pH 2.5
# Description: (§2) Yet further, the inventors have determined that the stability of aqueous gadusol can be improved when stored under acidic conditions. For example, 90% gadusol activity can be retained after 90 days at pH 2.5, where the concentration of gadusol is determined spectrophotometrically at 296 nm where it has an extinction coefficient of 21,800 M^−1 cm^−1. A standardized concentration curve can be used to determine an amount of gadusol in a volume sampled from a test solution at various time periods. Therefore, storage under acidic conditions may be useful for stabilizing gadusol generally, e.g., prior to introduction into a topical formulation. Combining gadusol with another antioxidant may be useful for extending the shelf life or stability of gadusol in a topical formulation.
# [5] = UV absorbance of the compounds; format: physicochemical; details: at 296 nm
# Description: as §2
# [6] = Folin-Ciocalteu antioxidant capacity; format: biochemical; details: concentrations ranging from about 0.3 to 10 mg/ml
# [7] = Comet assay; format: cell-based
# Source text: as §1
# [8] = system: Vero E6 fibroblasts; format: cell-based
# Source text: as §1
# [9] = Ames Test; format: cell-based
# Source text: as §1
# [10] = In vitro SPF determination on VitroSkin substrate (Labsphere UV-1000, absorbance 290-400 nm); format: physicochemical
# Description: SPF was also evaluated using an in vitro method that utilizes a synthetic/simulated skin as a test substrate. In this regard, VitroSkin® is an advanced testing substrate that effectively mimics the surface properties of human skin. It has been formulated to have topography, pH, critical surface tension, chemical reactivity and ionic strength that is similar to human skin. The procedure for in vitro testing was conducted according to a standard protocol. For testing, the test product was applied in a known amount to the substrate at an application density of 2 mg/cm^2. The in vitro SPF scores were determined using a Labsphere UV-1000 Ultraviolet Transmittance Analyzer. Spectral scans of absorbance of the artificial skin treated with a sample sunscreen formulation were performed in the UV region of 290-400 nm. The in vitro SPF was then calculated using the absorbance scan results. At least 5 in vitro SPF values were recorded for each example formulation and the averages calculated for reporting.
# In another example, gadusol was tested by the in vitro method using the Vitroskin substrate in the methodology discussed above. The COS1 formulation having 0.0 and 0.5% (w/w) gadusol and the COS2 formulations were tested with 0, 0.25, 0.5% (w/w) gadusol.
Structure (SMILES),effect on the protective action of gadusol (CAP-e) ([1]; gadusol and Porphyra-334 combined),lysis of the cells [1],"in vivo SPF, times the SPF conferred by 10% ZnO alone ([2]; 0.5% gadusol (w/w) with 10% ZnO)","in vivo SPF, times the SPF conferred by 10% ZnO alone ([2]; 0.75% gadusol (w/w) with 10% ZnO) [times]","in vivo SPF, times the SPF conferred by 10% ZnO alone ([2]; 1.0% gadusol (w/w) with 10% ZnO) [times]",SPF boost ([2]; gadusol 0.5 to 1% (w/w) in formulation containing 10% ZnO) [%],Toxicity towards E. coli [3],gadusol activity retained [4] [%],extinction coefficient [5],antioxidant power (Folin-Ciocalteu) [6],toxicity in the comet assay [7],antioxidant activity (CAP-e) ([1]; at 0.133 mg/ml),antioxidant activity (CAP-e) compared with Porphyra-334 ([1]; at about 1 mg/ml),cellular toxicity compared to oxybenzone [8],mutagenicity in the Ames Test [9],greater in vitro SPF when added to a composition containing 10% ZnO ([10]; 0.5% (w/w) gadusol) [%],"in vitro absorbance on addition to a 10% ZnO sunscreen formulation ([10]; 0.5% gadusol, from about 290 to about 325 nm, FIG. 6)",in vitro SPF activity of gadusol by itself ([10]; activity of the formulation matrix (1.1) subtracted)
"COC1=C(NCC(=O)O)C[C@@](O)(CO)CC1=N[C@H](C(=O)O)[C@@H](C)O [Porphyra-334, reference compound]",did not interfere with the protective action of the gadusol,caused some lysis of the cells,–,–,–,–,–,–,–,–,–,–,–,–,–,–,–,–
COC1=C(O)CC(O)(CO)C(O)C1=O (stereo not shown) [gadusol],–,caused some lysis of the cells,about 1.35 times,~1.51,~2.0,135 to 200,not found,90,"21,800 M^−1 cm^−1",substantially equivalent to a mycosporine compound from “nori” seaweed,nor was it toxic,Some in vivo antioxidant activity was seen,significantly more active antioxidant,less toxic than oxybenzone,not to be mutagenic,~50,significantly more absorbance,2.5-2.8 SPF units
